Assay results: publication PMC10147685, “Safety, tolerability, and pharmacokinetics of Aurora kinase B inhibitor AZD2811: a phase 1 dose-finding study in patients with advanced solid tumours” (British Journal of Cancer, 2023)
Read-outs that look alike come from different tables or passages of the source.

How the values were obtained:
[1] = system: animal models of SCLC and diffuse large B-cell lymphoma (DLBCL); design: method as in PMID 26865565, PMID 30872381; settings: at half the dose intensity of barasertib; cited from earlier work
advanced solid tumours = experiment: Preliminary antitumour activity (RECIST v1.1 best overall response); format: in vivo, human
Description: (§1) AEs were assessed throughout the treatment and follow-up periods. Patients were followed until all treatment-related toxicity resolved, or for at least 30 days post-study drug discontinuation. AEs were graded according to CTCAE v4.03. Venous blood samples (4 mL) for measurement of AZD2811 concentrations were collected at Cycle 1 Days 1–6, 8, 15, 16, and 22 and Cycle 2 Day 1 in Cohorts 1–6; Cycle 1 Days 1, 4, 8, 12, and 22 in Cohort 7; Cycle 1 Days 1, 4, 8, 12, and 15 and Cycle 2 Day 1 in Cohorts 8–12. Tumour imaging assessments using computed tomography or magnetic resonance imaging of the chest and abdomen/pelvis were performed at screening (≤28 days prior to initiation of treatment), and then every 2 cycles.
The primary objective was to evaluate the safety profile and determine the MTD/RP2D and schedule of AZD2811 by assessing the incidence of DLTs, AEs, and abnormal laboratory test results. Secondary objectives were evaluation of PK parameters and preliminary assessment of antitumour activity, including objective response rate (ORR [complete response + partial response (CR + PR)]) based on RECIST v1.1, and incidence of best overall response, stable disease (SD) and progressive disease (PD).
(§2) The safety analysis set comprised all patients who received at least one dose of AZD2811. The PK analysis set comprised all patients who received at least one dose of AZD2811 with at least one reportable concentration. […] There was no formal statistical analysis of safety and efficacy data. The numbers of patients experiencing each AE were summarised by Medical Dictionary for Regulatory Activities (MedDRA) version 22.1 system organ class, MedDRA preferred term, and CTCAE grade. The ORR and best overall response based on RECIST 1.1 were summarised. AZD2811 blood concentrations and derived PK parameters were summarised by dose regimen. Summary statistics were calculated for area under the curve (AUC), time of maximum concentration (tmax), and maximum concentration after a single dose (Cmax).

[2] = Pharmacokinetics: AZD2811 whole blood concentrations and urine excretion; format: in vivo, human; settings: for Cmax / AUC(0-t) / Tmax: human, whole blood; for Cmax: read-out: Geometric mean Cmax (CV%); for AUC(0-t): compartmental PK analysis, read-out: Geometric mean AUC(0–504h) (CV%); for Tmax: read-out: Median tmax (range)
Description: as §1, §2
Compartmental PK analysis was used to derive AUC from time zero to the time of the last planned sampling time in the study (AUC0–504h). Cmax and tmax were derived using the standard non-compartmental approach. PK parameters of Cmax, tmax, and AUC0–504h are summarised by cohort in Supplementary Table 2, and geometric mean AZD2811 whole blood concentrations are presented by cohort in Fig. 3. Maximum AZD2811 whole blood concentrations were observed after the end of infusions (Days 1 and 4). […] There was evidence of a second and third phase, 96 and 264 h post-dose. […] Urine samples were only collected in the first four cohorts, and AZD2811 concentrations were below the limit of quantification in the majority (>80%). Consequently, only the total amount of unchanged AZD2811 excreted into urine over 0–72 h was calculated; the maximum amount excreted was 294.40 µg for a patient in Cohort 4 (51 mg AZD2811), which represented <1% of the dose.
Fig. 3 Geometric mean (±geoSD) AZD2811 whole blood concentrations. a For days 1 and 4 regimens and b for day 1 only regimens. In Cohorts 1–6, PK blood samples (4 mL per sample) for determination of AZD2811 blood concentrations were collected from all patients on Cycle 1 Day 1 pre-dose, and at 1, 2, 4, 6, 8, 24, and 48 h (±15 min for each time point) from the start of infusion, then on Cycle 1 Day 4 pre-dose, and at 1, 2, 4, 6, 8, and 24 h (day 5), 48 h (day 6), 96 h (day 8) from the start of infusion, and in the morning on days 15, 16, and 22. A Cycle 2 Day 1 pre-dose sample and a 2-h sample (end of infusion) were also obtained. In Cohorts 7–12, PK blood samples were collected from all patients on Cycle 1 Day 1 pre-dose, and at 1, 2, 4, 6, and 8 h from the start of infusion, and in the morning on Days 4, 8, 12, and 22. G-CSF granulocyte colony stimulating factor, PK pharmacokinetics, Q3W every 3 weeks, Q4W every 4 weeks.

[3] = intravenous, 15 mg, Cohort 1: 15 mg, Days 1 and 4, 28-day cycles, no G-CSF, N = 3
[4] = intravenous, 25 mg, Cohort 2: 25 mg, Days 1 and 4, 28-day cycles, no G-CSF, N = 3
[5] = intravenous, 38 mg, Cohort 3: 38 mg, Days 1 and 4, 28-day cycles, no G-CSF, N = 3
[6] = intravenous, 51 mg, Cohort 4: 51 mg, Days 1 and 4, 28-day cycles, no G-CSF, N = 3
[7] = intravenous, 100 mg, Cohort 5: 100 mg, Days 1 and 4, 28-day cycles, no G-CSF, N = 3
[8] = intravenous, 200 mg, Cohort 8: 200 mg, Day 1, 21-day cycles, optional G-CSF, N = 3
[9] = intravenous, 200 mg, Cohort 6: 200 mg, Days 1 and 4, 28-day cycles, no G-CSF, N = 9
[10] = intravenous, 200 mg, Cohort 7: 200 mg, Day 1, 28-day cycles, optional G-CSF, N = 4
[11] = intravenous, 400 mg, Cohort 9: 400 mg, Day 1, 21-day cycles, optional G-CSF, N = 7
[12] = intravenous, 500 mg, Cohort 12: 500 mg, Day 1, 21-day cycles, mandatory G-CSF, N = 6
[13] = intravenous, 600 mg, Cohort 11: 600 mg, Day 1, 21-day cycles, mandatory G-CSF, N = 3
[14] = over 0–72 h, a patient in Cohort 4 (51 mg AZD2811)

## CCN(CCO)CCCOc1ccc2c(Nc3cc(CC(=O)Nc4cccc(F)c4)n[nH]3)ncnc2c1 [AZD2811, AZD1152 hydroxyquinazoline pyrazole anilide]
[1]
  Efficacy and toxicity compared with barasertib: greater efficacy and less toxicity
Advanced solid tumours; 1 patient with cancer of pancreaticobiliary origin in Cohort 8
  Duration of SD: 66 weeks
Advanced solid tumours; Cohorts 1–6
  Treatment discontinuation due to progressive disease: 83.3%
Advanced solid tumours; Cohorts 7–12
  Treatment discontinuation due to progressive disease: 81.5%
Advanced solid tumours; Total (N = 51)
  Best overall response: Not evaluable: 5 (9.8) n (%)
  Best overall response: Not evaluable, Incomplete post-baseline assessments: 4 (7.8) n (%)
  Best overall response: Not evaluable, Stable disease <2 cycles: 1 (2.0) n (%)
  Best overall response: Progressive disease: 22 (43.1) n (%)
  Best overall response: Progressive disease, Death: 3 (5.9) n (%)
  Best overall response: Progressive disease, RECIST progression: 19 (37.3) n (%)
Advanced solid tumours; Total (N = 51), two cycles = 56 days in 28-day cycles, 42 days in 21-day cycles
  Best overall response: Stable disease ≥2 cycles: 23 (45.1) n (%)
Advanced solid tumours; all cohorts
  Complete responses (CRs): no CRs
Advanced solid tumours; all cohorts, n = 1 of 51
  Best overall response: partial response, patients: 2.0%
Advanced solid tumours; evaluable-for-efficacy analysis set, Total (N = 51), all cohorts
  Best overall response: Partial response: 1 (2.0) n (%)
Advanced solid tumours; patient with adenocarcinoma of the breast in Cohort 7, best overall response SD
  Longest duration of therapy: > 17 months
Advanced solid tumours; patient with prostate cancer in Cohort 6 with a PR
  Reduction from baseline in sum of target lesion diameters: 80%
[2]; across the dose range evaluated (15–600 mg)
  Dose proportionality of PK: broadly dose-proportional
[2]; first four cohorts
  Urine samples with AZD2811 concentrations below the limit of quantification: > 80%
[2]; following a 2-h infusion on Day 1
  Duration of AZD2811 blood exposure: sustained for several days
[2]; following a 2-h infusion on Day 1, second and third phase 96 and 264 h post-dose
  End of gradual monophasic decline in concentration post-infusion: approximately 96 h
[2]; in vivo, Cohort 8: 200 mg, Day 1, 21-day cycles, optional G-CSF, N = 3
  Cmax: 41400 ng/mL
[2]; [3]
  AUC(0-t): 362 µg·h/mL
  Cmax: 3900 ng/mL
  Tmax: 77 h
[2]; [4]
  AUC(0-t): 658 µg·h/mL
  Cmax: 6700 ng/mL
  Tmax: 75 h
[2]; [5]
  AUC(0-t): 917 µg·h/mL
  Cmax: 8900 ng/mL
  Tmax: 75 h
[2]; [6]
  AUC(0-t): 1420 µg·h/mL
  Cmax: 14500 ng/mL
  Tmax: 78 h
[2]; [7]
  AUC(0-t): 3670 µg·h/mL
  Cmax: 36800 ng/mL
  Tmax: 78 h
[2]; intravenous, 200 mg, Cohort 6: 200 mg, Days 1 and 4, 28-day cycles, no G-CSF, N = 8
  AUC(0-t): 6220 µg·h/mL
[2]; intravenous, 200 mg, Cohort 7: 200 mg, Day 1, 28-day cycles, optional G-CSF, N = 3
  AUC(0-t): 3020 µg·h/mL
[2]; [8]
  AUC(0-t): 2750 µg·h/mL
  Tmax: 4 h
[2]; [9]
  Cmax: 58300 ng/mL
  Tmax: 74 h
[2]; [10]
  Cmax: 43400 ng/mL
  Tmax: 2 h
[2]; [11]
  AUC(0-t): 5440 µg·h/mL
  Cmax: 87300 ng/mL
  Tmax: 3 h
[2]; intravenous, 500 mg, Cohort 12: 500 mg, Day 1, 21-day cycles, mandatory G-CSF, N = 5
  AUC(0-t): 7840 µg·h/mL
[2]; [12]
  Cmax: 93900 ng/mL
  Tmax: 6 h
[2]; [13]
  AUC(0-t): 11600 µg·h/mL
  Cmax: 138000 ng/mL
  Tmax: 6 h
[2]; [14]
  Maximum amount excreted into urine as part of the dose: < 1 % of the dose
  Maximum amount of unchanged AZD2811 excreted into urine: 294.40 µg
